{
  "source": "patent US20240293405A1",
  "about": "“(1H-PYRROLO[2,3-B]PYRIDIN-1-YL)PYRIMIDIN-2-YL-AMINO-PHENYL-ACRYLAMIDE INHIBITORS OF EGFR FOR USE IN THE TREATMENT OF BRAIN TUMORS” (Dana-Farber Cancer Institute, Inc., priority 2021, published 2024)",
  "key": {"BT333 cells": {"system": "BT333 cells", "assay": "Cell viability, patient-derived GBM line BT333", "conditions": "Homo sapiens, 72 h"}, "CPEvIII GBM": {"system": "CPEvIII GBM", "assay": "Intracranial orthotopic CPEvIII allograft in mice", "format": "in vivo, mouse", "procedure": "Cells (100,000 cells resuspended in 1 μl PBS) were intracranially injected into the right striatum (0 mm anterior, 2 mm lateral, and 2.5 mm ventral to bregma) of 8-10 week-old ICR-SCID mice. Animals were monitored daily for development of neurological defects.\n(§1) Neural stem cells (NSCs) from E14.5 embryonic mice (Cdkn2a-null; Ptenf/f) striata were isolated and cultured as previously described (Rietze, R. L., and Reynolds, B. A. (2006). Methods in enzymology 419, 3-23). NSCs were infected twice with adenovirus expressing Cre recombinase (AdCre; MOI50) (University of Iowa) to knock out floxed Pten. Cells were then transduced with retrovirus expressing EGFRvIII (pBabe-puro-EGFRvIII) (from Dr. Charles Stiles, DFCI) and selected with 1 μg/ml puromycin. The resulting cells (Cdkn2anull; Ptennull; EGFRvIII, denominated CPEvIII) can form a glioma after grafted into the mouse brain. Tumors were then isolated and mechanically dissociated for expansion in vitro and in vivo.\nIn GBM, EGFR mutations frequently coexist with CDKN2A deletion and PTEN deficiency (Brennan, C. W., et al. (2013). Cell 155, 462-477; Cancer Genome Atlas Research, N. (2008). Nature 455, 1061-1068). A syngeneic genetically engineered mouse (GEM) model of GBM driven by Cdkn2a and Pten double deletion concomitant with EGFRvIII expression (termed CPEvIII) has been generated. […]"}, "EGFR": {"biological_target": "EGFR (Homo sapiens, UniProt P00533)", "sequence (P00533 25-1210)": "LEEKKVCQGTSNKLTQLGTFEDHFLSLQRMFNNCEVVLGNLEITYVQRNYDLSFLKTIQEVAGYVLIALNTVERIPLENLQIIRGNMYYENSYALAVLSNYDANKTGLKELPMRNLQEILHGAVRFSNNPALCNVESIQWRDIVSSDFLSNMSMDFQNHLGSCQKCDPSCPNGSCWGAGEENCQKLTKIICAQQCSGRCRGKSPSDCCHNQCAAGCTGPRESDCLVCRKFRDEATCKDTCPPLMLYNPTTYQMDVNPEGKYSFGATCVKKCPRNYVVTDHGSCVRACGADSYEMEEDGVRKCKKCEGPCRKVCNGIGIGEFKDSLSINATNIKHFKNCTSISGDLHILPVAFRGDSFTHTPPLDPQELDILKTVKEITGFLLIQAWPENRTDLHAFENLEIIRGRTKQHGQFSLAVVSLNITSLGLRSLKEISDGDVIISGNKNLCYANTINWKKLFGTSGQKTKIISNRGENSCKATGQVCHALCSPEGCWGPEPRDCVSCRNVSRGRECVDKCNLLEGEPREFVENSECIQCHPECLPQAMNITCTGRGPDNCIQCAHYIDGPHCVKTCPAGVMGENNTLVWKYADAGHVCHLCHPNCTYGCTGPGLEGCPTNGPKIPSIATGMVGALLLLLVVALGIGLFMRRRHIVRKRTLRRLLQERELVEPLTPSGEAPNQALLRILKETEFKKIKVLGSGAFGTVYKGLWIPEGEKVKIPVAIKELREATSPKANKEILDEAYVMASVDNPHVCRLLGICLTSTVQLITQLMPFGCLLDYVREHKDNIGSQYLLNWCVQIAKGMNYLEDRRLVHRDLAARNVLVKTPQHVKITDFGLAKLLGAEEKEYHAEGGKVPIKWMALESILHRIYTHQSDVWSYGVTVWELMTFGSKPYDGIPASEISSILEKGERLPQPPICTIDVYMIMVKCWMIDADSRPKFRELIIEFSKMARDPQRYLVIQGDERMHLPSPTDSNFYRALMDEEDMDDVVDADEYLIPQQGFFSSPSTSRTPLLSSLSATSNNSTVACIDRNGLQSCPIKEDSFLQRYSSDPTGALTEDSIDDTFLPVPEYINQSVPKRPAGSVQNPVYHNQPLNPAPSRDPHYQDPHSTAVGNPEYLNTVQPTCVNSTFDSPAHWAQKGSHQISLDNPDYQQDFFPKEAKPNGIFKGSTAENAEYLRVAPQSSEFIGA", "assay": "Kinase binding constant (Kd)", "description": "(§2) EGFR amplifications and/or mutations are common in GBM, estimated to occur in over 50% of patients."}, "EGFR(T790M)": {"biological_target": "EGFR(T790M) (Homo sapiens, UniProt P00533, T790M)", "assay": "Kinase binding constant (Kd)", "description": "as §2"}, "EGFR(S752-I759del)": {"biological_target": "EGFR(S752-I759del) (Homo sapiens, UniProt P00533, DEL752-759)", "sequence (P00533 with tags, fused parts or gaps DEL752-759)": "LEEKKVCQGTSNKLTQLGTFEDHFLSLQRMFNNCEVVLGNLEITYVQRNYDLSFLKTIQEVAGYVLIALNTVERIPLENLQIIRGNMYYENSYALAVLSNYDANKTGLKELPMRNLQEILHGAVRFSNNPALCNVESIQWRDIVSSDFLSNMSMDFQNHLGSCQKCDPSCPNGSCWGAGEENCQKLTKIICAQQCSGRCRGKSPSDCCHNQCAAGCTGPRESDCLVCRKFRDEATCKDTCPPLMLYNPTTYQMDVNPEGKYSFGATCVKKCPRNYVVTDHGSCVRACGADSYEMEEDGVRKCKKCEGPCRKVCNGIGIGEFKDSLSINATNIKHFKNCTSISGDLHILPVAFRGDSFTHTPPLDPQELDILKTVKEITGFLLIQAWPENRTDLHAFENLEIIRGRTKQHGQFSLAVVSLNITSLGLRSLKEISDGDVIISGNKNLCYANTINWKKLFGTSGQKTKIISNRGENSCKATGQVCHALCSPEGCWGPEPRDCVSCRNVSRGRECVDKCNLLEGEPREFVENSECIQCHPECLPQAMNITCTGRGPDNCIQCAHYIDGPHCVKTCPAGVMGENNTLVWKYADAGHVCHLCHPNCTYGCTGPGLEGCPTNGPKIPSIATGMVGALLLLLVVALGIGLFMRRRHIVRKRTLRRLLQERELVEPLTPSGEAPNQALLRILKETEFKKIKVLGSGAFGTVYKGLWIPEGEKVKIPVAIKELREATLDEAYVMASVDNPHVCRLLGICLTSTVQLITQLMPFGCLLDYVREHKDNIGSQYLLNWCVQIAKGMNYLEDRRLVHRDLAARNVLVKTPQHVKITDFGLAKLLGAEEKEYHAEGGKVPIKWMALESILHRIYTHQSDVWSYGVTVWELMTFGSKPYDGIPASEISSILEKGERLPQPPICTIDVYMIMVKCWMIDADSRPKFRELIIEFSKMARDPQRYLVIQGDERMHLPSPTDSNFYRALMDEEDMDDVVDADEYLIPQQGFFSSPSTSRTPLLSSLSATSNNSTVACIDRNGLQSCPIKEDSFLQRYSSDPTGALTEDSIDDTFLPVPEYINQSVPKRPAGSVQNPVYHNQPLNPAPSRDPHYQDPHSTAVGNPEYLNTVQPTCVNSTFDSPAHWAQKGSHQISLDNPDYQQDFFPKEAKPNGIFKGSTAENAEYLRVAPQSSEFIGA", "assay": "Kinase binding constant (Kd)", "description": "as §2"}, "[1]": {"biological_target": "EGFR(L747-S752del, P753S) (Homo sapiens, UniProt P00533, DEL747-752/P753S)", "sequence (P00533 with tags, fused parts or gaps DEL747-752/P753S)": "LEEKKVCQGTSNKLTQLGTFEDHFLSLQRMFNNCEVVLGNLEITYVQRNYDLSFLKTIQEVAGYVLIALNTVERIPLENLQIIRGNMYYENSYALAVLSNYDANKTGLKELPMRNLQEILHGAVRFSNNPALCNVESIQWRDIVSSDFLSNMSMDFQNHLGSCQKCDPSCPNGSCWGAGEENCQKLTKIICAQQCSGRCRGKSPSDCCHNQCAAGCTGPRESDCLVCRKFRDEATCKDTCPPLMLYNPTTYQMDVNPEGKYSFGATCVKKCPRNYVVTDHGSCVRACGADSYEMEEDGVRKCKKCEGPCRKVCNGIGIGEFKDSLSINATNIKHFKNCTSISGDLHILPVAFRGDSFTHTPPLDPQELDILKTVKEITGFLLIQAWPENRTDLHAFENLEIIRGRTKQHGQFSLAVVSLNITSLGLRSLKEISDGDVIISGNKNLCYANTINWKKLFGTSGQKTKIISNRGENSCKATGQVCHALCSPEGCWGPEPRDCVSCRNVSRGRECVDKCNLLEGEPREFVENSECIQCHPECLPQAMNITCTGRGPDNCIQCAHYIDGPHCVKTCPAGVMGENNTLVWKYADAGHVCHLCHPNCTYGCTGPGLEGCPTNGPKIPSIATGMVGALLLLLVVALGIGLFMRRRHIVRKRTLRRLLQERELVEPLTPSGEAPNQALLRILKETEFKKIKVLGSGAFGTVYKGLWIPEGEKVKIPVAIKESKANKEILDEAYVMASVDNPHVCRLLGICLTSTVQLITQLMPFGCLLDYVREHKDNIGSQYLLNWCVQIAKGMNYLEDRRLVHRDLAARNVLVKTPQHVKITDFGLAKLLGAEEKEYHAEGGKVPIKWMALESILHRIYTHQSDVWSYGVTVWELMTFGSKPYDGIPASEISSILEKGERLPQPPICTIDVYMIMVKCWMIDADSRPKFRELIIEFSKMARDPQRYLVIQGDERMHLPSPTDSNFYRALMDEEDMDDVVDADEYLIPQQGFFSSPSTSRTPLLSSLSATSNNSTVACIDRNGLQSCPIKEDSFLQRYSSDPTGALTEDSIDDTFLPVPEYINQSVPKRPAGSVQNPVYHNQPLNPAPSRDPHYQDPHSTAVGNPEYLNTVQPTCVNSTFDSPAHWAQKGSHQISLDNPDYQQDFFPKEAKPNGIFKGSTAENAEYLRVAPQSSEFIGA", "assay": "Kinase binding constant (Kd)", "description": "as §2"}, "EGFR(L858R)": {"biological_target": "EGFR(L858R) (Homo sapiens, UniProt P00533, L858R)", "assay": "Kinase binding constant (Kd)", "description": "as §2"}, "EGFR(L861Q)": {"biological_target": "EGFR(L861Q) (Homo sapiens, UniProt P00533, L861Q)", "sequence (P00533 25-1210 L861Q)": "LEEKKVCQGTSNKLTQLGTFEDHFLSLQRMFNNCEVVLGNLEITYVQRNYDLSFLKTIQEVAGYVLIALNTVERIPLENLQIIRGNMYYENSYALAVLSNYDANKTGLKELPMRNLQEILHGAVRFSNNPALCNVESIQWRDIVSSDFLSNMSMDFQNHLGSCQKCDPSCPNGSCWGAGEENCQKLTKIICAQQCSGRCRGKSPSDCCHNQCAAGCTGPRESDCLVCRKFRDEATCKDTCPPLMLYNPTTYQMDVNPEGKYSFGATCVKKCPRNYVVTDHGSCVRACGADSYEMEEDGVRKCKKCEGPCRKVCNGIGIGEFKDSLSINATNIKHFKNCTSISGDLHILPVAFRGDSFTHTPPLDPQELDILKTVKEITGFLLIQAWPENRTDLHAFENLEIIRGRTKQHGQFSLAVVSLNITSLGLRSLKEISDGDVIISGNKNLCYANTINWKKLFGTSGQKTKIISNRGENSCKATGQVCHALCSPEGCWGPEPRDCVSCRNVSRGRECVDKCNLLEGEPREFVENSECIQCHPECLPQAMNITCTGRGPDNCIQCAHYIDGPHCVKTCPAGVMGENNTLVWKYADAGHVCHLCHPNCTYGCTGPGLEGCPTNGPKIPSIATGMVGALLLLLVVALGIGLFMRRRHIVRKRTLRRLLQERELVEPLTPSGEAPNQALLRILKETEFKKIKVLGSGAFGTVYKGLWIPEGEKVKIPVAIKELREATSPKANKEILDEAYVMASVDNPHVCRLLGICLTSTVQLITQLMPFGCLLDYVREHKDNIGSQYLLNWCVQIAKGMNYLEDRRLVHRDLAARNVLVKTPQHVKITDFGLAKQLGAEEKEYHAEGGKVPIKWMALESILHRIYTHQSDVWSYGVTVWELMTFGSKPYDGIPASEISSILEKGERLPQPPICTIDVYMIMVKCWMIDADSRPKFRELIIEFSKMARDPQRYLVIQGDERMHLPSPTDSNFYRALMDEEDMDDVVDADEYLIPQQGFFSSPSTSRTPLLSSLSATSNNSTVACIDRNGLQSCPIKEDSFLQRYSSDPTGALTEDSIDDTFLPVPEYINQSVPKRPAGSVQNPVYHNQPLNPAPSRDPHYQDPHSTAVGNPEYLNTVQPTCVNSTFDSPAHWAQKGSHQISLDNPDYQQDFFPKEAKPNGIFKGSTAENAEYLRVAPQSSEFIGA", "assay": "Kinase binding constant (Kd)", "description": "as §2"}, "EGFR(L747-T751del,Sins)": {"biological_target": "EGFR(L747-T751del,Sins) (Homo sapiens, UniProt P00533, DELINS747-751S)", "assay": "Kinase binding constant (Kd)", "description": "as §2"}, "ERBB4": {"biological_target": "ERBB4 (Homo sapiens, UniProt Q15303)", "assay": "Kinase binding constant (Kd)", "description": "as §2"}, "EGFR(E746-A750del)": {"biological_target": "EGFR(E746-A750del) (Homo sapiens, UniProt P00533, DEL746-750)", "assay": "Kinase binding constant (Kd)", "description": "as §2"}, "EGFR(G719S)": {"biological_target": "EGFR(G719S) (Homo sapiens, UniProt P00533, G719S)", "assay": "Kinase binding constant (Kd)", "description": "as §2"}, "EGFR(G719C)": {"biological_target": "EGFR(G719C) (Homo sapiens, UniProt P00533, G719C)", "assay": "Kinase binding constant (Kd)", "description": "as §2"}, "ERBB2": {"biological_target": "ERBB2 (Homo sapiens, UniProt P04626)", "assay": "Kinase binding constant (Kd)", "description": "as §2"}, "EGFR(L858R,T790M)": {"biological_target": "EGFR(L858R,T790M) (Homo sapiens, UniProt P00533, L858R/T790M)", "assay": "Kinase binding constant (Kd)", "description": "as §2"}, "[2]": {"biological_target": "EGFR(L747-E749del, A750P) (Homo sapiens, UniProt P00533, A750P/DEL747-749)", "assay": "Kinase binding constant (Kd)", "description": "as §2"}, "[3]": {"assay": "Pharmacokinetics in rats (IV, PO)", "format": "in vivo, rat", "conditions": "for bioavailability: independent of dose", "description": "Exposure was generally dose proportional."}, "[4]": {"assay": "Cardiovascular function (telemetry)", "format": "in vivo, dog", "procedure": "This arrythmia was not associated with maximum plasma concentration (Cmax) or Tmax of either parent or metabolite. No definitive link to the test article could be identified. Given the unexplained reversible arrythmia in this high-dose (100 mg/kg) telemetry dog, routine electrocardiogram (ECG) monitoring in Phase 1 is recommended."}, "[5]": {"system": "EGFRvIII, ERK1/2 and S6RP phosphorylation", "assay": "Phosphorylation in CPEvIII neurosphere cultures (western blot)", "format": "cell-based, mouse", "conditions": "CPEvIII neurospheres, 1 day, dose-dependent", "procedure": "FIG. 5B is the western blot analysis of primary mouse CPEvIII cells that were treated with Compound 1 for 1 day.\nWestern blot analysis was performed as described previously (Ni, J., et al. (2012). Cancer discovery 2, 425-433; Ni, J., et al. (2016). Nature medicine 22, 723-726; Ni, J., et al. (2017). Neurooncology 19, 22-30). Anti-pEGFR-1068 (#3777), anti-pEGFR-1173 (#4407), anti-EGFR (#4267), anti-pERK1/2 (#9101), anti-ERK1/2 (#9102), anti-S6RP (#2211), and anti-S6RP (#2217) antibodies were purchased from Cell Signaling Technology. Anti-a-Tubulin antibody was purchased from Sigma.\nas §1, with “vivo. […]” for “vivo.”"}, "[6]": {"system": "broad human receptor profile", "assay": "Receptor selectivity screen", "format": "binding", "conditions": "10 μM free base", "procedure": "Compound 1 and/or Compound 2 (active/major metabolite) were evaluated for off-target activity in a large panel of receptors and ion channels, including a human ether-i-go-go-related gene (hERG) assay. Compound 1 was assessed comprehensively in Good Laboratory Practice (GLP) safety pharmacology studies, including studies of cardiovascular, respiratory and central nervous system function."}},
  "note": "Where “and” joins values, the source holds several entries; their conditions need not be identical. Identical values can stand only once. Entries after “also recorded” stand apart in the source; their conditions may differ. Like-named read-outs stand apart in the source and are kept apart here.",
  "data": [
    {"smiles": "C=CC(=O)Nc1cc(Nc2nccc(-n3ccc4cccnc43)n2)c(OC)cc1N(C)CCN(C)C", "note": "[Compound 1, N-(5-((4-(1H-pyrrolo[2,3-b]pyridin-1-yl)pyrimidin-2-yl)amino)-2-((2-(dimethylamino)ethyl)(methyl)amino)-4-methoxyphenyl)acrylamide]", "values": [
      {"measurement": "IC50", "setting": "BT333 cells", "value": 3280, "unit": "nM"},
      {"measurement": "body weight during treatment", "setting": "CPEvIII GBM; 75 mg/kg QD", "value": "no significant loss of body weight"},
      {"measurement": "phosphorylation levels of EGFRvIII in tumors (IHC)", "setting": "CPEvIII GBM; tumors at end point, 75 mg/kg", "value": "reduced"},
      {"measurement": "activity against wild-type EGFR", "setting": "EGFR", "value": "little activity"},
      {"measurement": "Kd", "setting": "EGFR; EGFR wild type", "value": 4.9, "unit": "nM"},
      {"measurement": "Kd", "setting": "EGFR(T790M)", "value": 0.15, "unit": "nM"},
      {"measurement": "Kd", "setting": "EGFR(S752-I759del)", "value": 2.9, "unit": "nM"},
      {"measurement": "Kd", "setting": "[1]", "value": 3.1, "unit": "nM"},
      {"measurement": "Kd", "setting": "EGFR(L858R)", "value": 4.6, "unit": "nM"},
      {"measurement": "Kd", "setting": "EGFR(L861Q)", "value": 3.9, "unit": "nM"},
      {"measurement": "Kd", "setting": "EGFR(L747-T751del,Sins)", "value": 2, "unit": "nM"},
      {"measurement": "Kd", "setting": "ERBB4", "value": 11, "unit": "nM"},
      {"measurement": "Kd", "setting": "EGFR(E746-A750del)", "value": 0.7, "unit": "nM"},
      {"measurement": "Kd", "setting": "EGFR(G719S)", "value": 1.7, "unit": "nM"},
      {"measurement": "Kd", "setting": "EGFR(G719C)", "value": 2.2, "unit": "nM"},
      {"measurement": "Kd", "setting": "ERBB2", "value": 11, "unit": "nM"},
      {"measurement": "Kd", "setting": "EGFR(L858R,T790M)", "value": 0.11, "unit": "nM"},
      {"measurement": "Kd", "setting": "[2]", "value": 0.97, "unit": "nM"},
      {"measurement": "clearance", "setting": "[3]", "value": "moderately high clearance; also recorded: moderately high-clearance; also recorded: Moderate high-clearance"},
      {"measurement": "volume of distribution", "setting": "[3]", "value": "large volume of distribution"},
      {"measurement": "clearance", "setting": "[3]; listed as Compound 11", "value": "relatively high clearance rate"},
      {"measurement": "bioavailability", "setting": "[3]; rat, in vivo, po", "value": "~50", "unit": "%"},
      {"measurement": "half-life", "setting": "[3]; rat, plasma, Compound 2 as metabolite", "value": "~5", "unit": "h"},
      {"measurement": "Tmax", "setting": "[3]; rat, plasma, po, Compound 2 as metabolite", "value": "~5", "unit": "h"},
      {"measurement": "bioavailability", "setting": "[3]; rat, plasma, po", "value": 50, "unit": "%"},
      {"measurement": "dogs with reversible ventricular conduction disturbance", "setting": "[4]; 100 mg/kg, 10 to 24 hours after dose", "value": "1 of 4"},
      {"measurement": "QTc, blood pressure and cardiac intervals", "setting": "[4]; doses up to 100 mg/kg", "value": "no QTc signals; also recorded: no adverse effects on blood pressure or cardiac intervals"},
      {"measurement": "Cmax", "setting": "[4]; plasma, dog, 100 mg/kg Compound 1 PO, M38 as metabolite, read-out: estimated single-dose Cmax", "value": "2620 ng/mL and 5.4 µM"},
      {"measurement": "phosphorylation of EGFRvIII, ERK1/2 and S6RP", "setting": "[5]", "value": "markedly reduced phosphorylation; also recorded: Marked"},
      {"measurement": "off-target risk from receptor binding studies", "setting": "[6]", "value": "little off-target risk"}
    ]}
  ]
}
